In patent US5395824A, “Dipeptide derivative and prophylactic and therapeutic agent for bone diseases containing the same” (Suntory Limited, priority 1991, dated 1995):

Key:
[1] = test system: PTHrp(1-34)-Induced Hypercalcemia in Rats; test: Effect on PTHrp(1-34)-induced hypercalcemia in rats (p.o.); assay type: in vivo; conditions: male Wistar rats, 40 mg/kg p.o.; PTHrp(1-34) 5 nmole/kg i.v. four hours later; blood sample 1 hour after PTHrp; n = 5; PTHrp-only control 10.84 ± 0.11
Description: Some of the compounds shown in Table 1 were orally administered to 5-week-old male Wistar rats weighing from […] to 110 g (5 animals per group) at a dose of 40 mg/kg body weight. Four hours later, 5 nmole/kg of PTHrp(1-34) was intravenously injected into the animals. One hour after the administration of PTHrp(1-34)sequence ID No. 1, a blood sample was collected from each rat, and the blood calcium concentration was determined by the octocresolphthalein complexone method.

[2] = test system: PTHrp(1-34)-Induced Hypercalcemia in Rats; test: Effect on PTHrp(1-34)-induced hypercalcemia in rats (i.p.); assay type: in vivo; conditions: male Wistar rats, 40 mg/kg i.p.; PTHrp(1-34) 5 nmole/kg i.v. two hours later; blood sample 1 hour after PTHrp; n = 5; PTHrp-only control 10.79 ± 0.13
Description: Some of the compounds shown in Table 1 were intraperitoneally administered to 5-week-old male Wistar rats each weighing 90 to 110 g (5 animals per group) at a dose of 40 mg/kg body weight. Two hours later, 5 nmole/kg of PTHrp(1-34) was intravenously injected. One hour after the administration of PTHrp(1-34), a blood sample was collected from each animal, and the blood calcium concentration was determined according to the same method as in Test Example 1.

For CCCCC(NC(=O)[C@H](CC(C)C)NC(=O)OCc1ccccc1)C1NCCS1 (stereo partly drawn) [Example 15, N-Benzyloxycarbonyl-L-leucine-[1-(thiazolidine-2-yl)]pentylamide], the “Ca Conc. ± S.E. (average blood calcium concentration)” value [1] was 9.98 ± 0.13 mg/dL and the “Ca Conc. ± S.E. (average blood calcium concentration)” value [2] was 10.13 ± 0.21 mg/dL.
CCCCC(NC(=O)[C@H](CC(C)C)NC(=O)OCc1ccccc1)C(OC(C)=O)OC(C)=O (stereo partly drawn) [Example 12, N-Benzyloxycarbonyl-L-leucine-(1-diacetoxymethyl)pentylamide] was tested, and the “Ca Conc. ± S.E. (average blood calcium concentration)” value [2] was 10.27 ± 0.08 mg/dL.
For CCCCC(NC(=O)[C@H](CC(C)C)NC(C)=O)C1OCCO1 (stereo partly drawn) [Example 17, N-Acetyl-L-leucine-[1-(1,3-dioxolan-2-yl)]pentylamide], the “Ca Conc. ± S.E. (average blood calcium concentration)” value [1] was 9.97 ± 0.17 mg/dL and the “Ca Conc. ± S.E. (average blood calcium concentration)” value [2] was 10.16 ± 0.05 mg/dL.
CCCCC(NC(=O)[C@H](CC(C)C)NC(=O)CCl)C(OC)OC (stereo partly drawn) [Example 24, N-Chloroacetyl-L-leucine-(1-dimethoxymethyl)pentylamide] was tested, and the “Ca Conc. ± S.E. (average blood calcium concentration)” value [1] was 10.12 ± 0.09 mg/dL.
In the case of CCCCC(NC(=O)[C@H](CC(C)C)NC(=O)OCc1ccccc1)C(OC)OC (stereo partly drawn) [Example 7, N-Benzyloxycarbonyl-L-leucine-(1-dimethoxymethyl)pentylamide], the “Ca Conc. ± S.E. (average blood calcium concentration)” value [1] is reported as 10.36 ± 0.11 mg/dL and the “Ca Conc. ± S.E. (average blood calcium concentration)” value [2] is reported as 10.29 ± 0.14 mg/dL.
In the case of CCCCC(NC(=O)[C@H](CC(C)C)NC(=O)CC)C(OC)OC (stereo partly drawn) [Example 25, N-Propionyl-L-leucine-(1-dimethoxymethyl)pentylamide], the “Ca Conc. ± S.E. (average blood calcium concentration)” value [1] is reported as 9.88 ± 0.09 mg/dL.
For CC(C)CC(C=O)NC(=O)[C@H](CC(C)C)NC(=O)OCc1ccccc1 (stereo partly drawn) [Example 33, N-Benzyloxycarbonyl-L-leucine-(1-formyl-3-methyl)butylamide], the “Ca Conc. ± S.E. (average blood calcium concentration)” value [1] was 10.26 ± 0.13 mg/dL.
CCCCC(NC(=O)[C@H](CC(C)C)NC(C)=O)C(OCC)OCC (stereo partly drawn) [Example 22, N-Acetyl-L-leucine-(1-diethoxymethyl)pentylamide] was tested, and the “Ca Conc. ± S.E. (average blood calcium concentration)” value [1] was 10.05 ± 0.13 mg/dL and the “Ca Conc. ± S.E. (average blood calcium concentration)” value [2] was 9.67 ± 0.18 mg/dL.
For CCCCC(NC(=O)[C@H](CC(C)C)NC(=O)C(C)C)C(OC)OC (stereo partly drawn) [Example 23, N-Isobutyryl-L-leucine-(1-dimethoxymethyl)pentylamide], the “Ca Conc. ± S.E. (average blood calcium concentration)” value [1] was 9.83 ± 0.13 mg/dL.
With CCCCC(NC(=O)[C@H](CC(C)C)NC(=O)CCC)C(OC)OC (stereo partly drawn) [Example 26, N-Butyryl-L-leucine-(1-dimethoxymethyl)pentylamide] the “Ca Conc. ± S.E. (average blood calcium concentration)” value [1] was 9.85 ± 0.08 mg/dL.
CCCCC(NC(=O)[C@H](CC(C)C)NC(=O)C(F)(F)F)C(OC)OC (stereo partly drawn) [Example 27, N-Trifluoroacetyl-L-leucine-(1-dimethoxymethyl)pentylamide] was tested, and the “Ca Conc. ± S.E. (average blood calcium concentration)” value [1] was 9.91 ± 0.13 mg/dL.
With CCCCC(NC(=O)[C@H](CC(C)C)NC(C)=O)C(OC)OC (stereo partly drawn) [Example 16, N-Acetyl-L-leucine-(1-dimethoxymethyl)pentylamide] the “Ca Conc. ± S.E. (average blood calcium concentration)” value [1] was 9.91 ± 0.13 mg/dL and the “Ca Conc. ± S.E. (average blood calcium concentration)” value [2] was 9.95 ± 0.14 mg/dL.
CCCCC(NC(=O)[C@H](CC(C)C)NC(=O)OCc1ccccc1)C1OCCO1 (stereo partly shown) [Example 9] was tested, and the “Ca Conc. ± S.E. (average blood calcium concentration)” value [1] was 10.41 ± 0.08 mg/dL.
With CCCCC(NC(=O)[C@H](CC(C)C)NC(C)=O)C1NCCS1 (stereo partly drawn) [Example 21, N-Acetyl-L-leucine-[1-(thiazolidine-2-yl)]pentylamide] the “Ca Conc. ± S.E. (average blood calcium concentration)” value [1] was 9.98 ± 0.10 mg/dL and the “Ca Conc. ± S.E. (average blood calcium concentration)” value [2] was 9.96 ± 0.07 mg/dL.
With CCCCC(NC(=O)[C@H](CC(C)C)NC(=O)OCc1ccccc1)C1SCCS1 (stereo partly drawn) [Example 13, N-Benzyloxycarbonyl-L-leucine-[1-(1,3-dithiolan-2-yl)]pentylamide] the “Ca Conc. ± S.E. (average blood calcium concentration)” value [2] was 10.23 ± 0.05 mg/dL.
With CCCCC(NC(=O)[C@H](CC(C)C)NC(=O)OCc1ccccc1)C(=O)C(=O)OCC (stereo partly drawn) [Example 1, N-Benzyloxycarbonyl-L-leueine-(1-ethoxalyl)pentylamide] the “Ca Conc. ± S.E. (average blood calcium concentration)” value [2] was 10.33 ± 0.12 mg/dL.
